Consider 15 molecules from US20220242863A1, “COMPOUNDS FOR TREATMENT OF EYE DISORDERS” (SINOPSEE THERAPEUTICS, priority 2019, published 2022).

For orientation: IC50 means the point on the concentration scale where inhibition reaches its midpoint.

In experiment [1] the target is CDK8 (Homo sapiens, UniProt P49336). Nature of the experiment: In vitro kinase assay ([γ-33P]-ATP). Type of experiment: biochemical. The conditions noted are these: ATP at apparent Km of the kinase. On the procedure:
(§1) To determine the inhibitory activity of compounds, in vitro kinase assays were performed on respective enzymes purified from Sf9 insect cells or E. coli as recombinant GST-fusion proteins or His-tagged proteins.

Experiment [2] addresses T1, Flt3 (Homo sapiens, UniProt P36888).
T1 sequence (P36888 27-993): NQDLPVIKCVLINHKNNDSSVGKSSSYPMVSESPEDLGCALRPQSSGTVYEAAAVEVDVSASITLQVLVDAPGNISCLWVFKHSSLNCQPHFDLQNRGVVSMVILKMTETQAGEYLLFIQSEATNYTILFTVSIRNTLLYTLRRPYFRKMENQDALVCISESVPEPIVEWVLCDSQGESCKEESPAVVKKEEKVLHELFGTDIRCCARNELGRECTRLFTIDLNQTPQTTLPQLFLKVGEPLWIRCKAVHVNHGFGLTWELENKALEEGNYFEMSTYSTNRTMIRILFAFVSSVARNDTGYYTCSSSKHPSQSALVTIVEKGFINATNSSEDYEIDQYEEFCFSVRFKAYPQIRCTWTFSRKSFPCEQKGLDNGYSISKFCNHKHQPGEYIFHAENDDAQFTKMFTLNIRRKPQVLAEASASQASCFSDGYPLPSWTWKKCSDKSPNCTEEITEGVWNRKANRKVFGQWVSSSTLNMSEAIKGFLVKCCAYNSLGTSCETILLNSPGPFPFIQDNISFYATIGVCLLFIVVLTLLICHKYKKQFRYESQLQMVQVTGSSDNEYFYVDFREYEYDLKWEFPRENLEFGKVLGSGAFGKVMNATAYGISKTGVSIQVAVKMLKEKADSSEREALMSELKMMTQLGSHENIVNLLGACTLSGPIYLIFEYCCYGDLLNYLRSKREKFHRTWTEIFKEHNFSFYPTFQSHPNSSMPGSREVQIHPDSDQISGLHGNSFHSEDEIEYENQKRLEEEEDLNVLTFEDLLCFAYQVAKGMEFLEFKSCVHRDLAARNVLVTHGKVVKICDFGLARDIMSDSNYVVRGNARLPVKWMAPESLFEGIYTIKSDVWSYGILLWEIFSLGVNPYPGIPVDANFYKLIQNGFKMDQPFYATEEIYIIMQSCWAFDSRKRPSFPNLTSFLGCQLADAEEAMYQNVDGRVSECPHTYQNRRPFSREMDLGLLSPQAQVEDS
Nature of the experiment: In vitro kinase assay ([γ-33P]-ATP). The class given is biochemical. The conditions noted are these: ATP at apparent Km of the kinase. On the procedure:
as §1

The target in experiment [3] is VEGFR-2 (Homo sapiens, UniProt P35968). Nature of the experiment: In vitro kinase assay ([γ-33P]-ATP). Type of experiment: biochemical. The conditions noted are these: ATP at apparent Km of the kinase. The protocol:
as §1

Experiment [4] addresses PDGFR-α (Homo sapiens, UniProt P16234). Nature of the experiment: In vitro kinase assay ([γ-33P]-ATP). Type of experiment: biochemical. The conditions noted are these: ATP at apparent Km of the kinase. The protocol:
as §1

For experiment [5], the target named is CDK19 (Homo sapiens, UniProt Q9BWU1). Nature of the experiment: In vitro kinase assay ([γ-33P]-ATP). The class given is biochemical. The conditions noted are these: ATP at apparent Km of the kinase. The protocol: as §1
Sequence of CDK19 (Q9BWU1 whole entry, species assumed): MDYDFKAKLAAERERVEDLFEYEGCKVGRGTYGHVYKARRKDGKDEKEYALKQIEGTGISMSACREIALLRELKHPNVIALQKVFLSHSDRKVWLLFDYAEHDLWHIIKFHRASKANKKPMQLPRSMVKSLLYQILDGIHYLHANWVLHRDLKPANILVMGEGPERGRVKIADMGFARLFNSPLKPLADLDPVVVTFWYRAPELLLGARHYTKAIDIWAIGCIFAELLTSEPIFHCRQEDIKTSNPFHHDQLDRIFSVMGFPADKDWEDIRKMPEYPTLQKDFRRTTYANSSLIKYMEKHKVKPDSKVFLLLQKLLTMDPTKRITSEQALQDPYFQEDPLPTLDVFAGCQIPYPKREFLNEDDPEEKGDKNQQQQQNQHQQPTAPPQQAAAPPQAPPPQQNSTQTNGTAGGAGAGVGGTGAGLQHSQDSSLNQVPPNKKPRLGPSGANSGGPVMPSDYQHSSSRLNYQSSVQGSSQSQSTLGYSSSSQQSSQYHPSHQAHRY
Sequence of CDK19 (P24863 whole entry partner, species assumed): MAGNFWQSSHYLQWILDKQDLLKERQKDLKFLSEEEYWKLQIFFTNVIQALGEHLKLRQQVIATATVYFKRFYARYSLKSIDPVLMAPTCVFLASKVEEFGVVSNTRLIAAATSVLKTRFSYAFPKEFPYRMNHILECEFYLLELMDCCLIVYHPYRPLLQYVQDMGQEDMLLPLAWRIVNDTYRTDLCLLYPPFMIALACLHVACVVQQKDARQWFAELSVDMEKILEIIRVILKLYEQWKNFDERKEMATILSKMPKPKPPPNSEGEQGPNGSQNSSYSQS
For experiment [6], the target named is T2, PDGFRβ (Homo sapiens, UniProt P09619). Description: In vitro kinase assay ([γ-33P]-ATP). Type of experiment: biochemical. The conditions noted are these: ATP at apparent Km of the kinase. The protocol:
as §1

The test system of experiment [7] is BA/F3 cells expressing FIt3. Nature of the experiment: Cell viability by MTS assay (MTS Assay 2). The conditions noted are these: Mus musculus, BaF3, concentration required to reduce cell viability to 50%, 20-48 hrs. The class given is cell-based. On the procedure:
(§2) The effect of the compounds on cell viability were determined using MTS assay. MTS Cell Proliferation Assay Kit is a colorimetric method for sensitive quantification of viable cells in proliferation and cytotoxicity assay. The method is based on the reduction of MTS tetrazolium compound by viable cells to generate a colored formazan product that is soluble in cell culture media. BA/F3 cells expressing the receptor tyrosine kinase (either PDGFR [MTS Assay 1] or FIt3 [MTS Assay 2]) were cultured in standard culture conditions in a 96-well microtiter plate (final volume of 200 μl/well) in the absence or presence of the compound to be tested and were incubated for 20-48 hrs. MTS Reagent (20 μl/well) was added into each well & incubated for 0.5-4 hours at 37° C. in standard culture conditions. Absorbance at 490 nm was recorded using a plate reader.
(§3) Results are shown in FIGS. 2 and 3 and Table 2 (where IC50 indicates the concentration of compound required to reduce cell viability to 50%).
In Table 3: • L represents an IC50 of less than 500 nM • M represents an IC50 of between 500 nM and 5000 nM • H represents an IC50 of more than 5000 nM • For the MTS Assay, the result indicates the concentration of compound required to reduce cell viability to 50%.

For experiment [8], the target named is T2, PDGFRβ. Description: Western blot of PDGFRβ autophosphorylation and Shp2 phosphorylation in HEK293 cell line model. The class given is cell-based. Also noted: expressed in transfected cells; host or cells: HEK293. The conditions noted are these: HEK293 cells expressing PDGFRβ, 20 ng/ml PDGF; FIG. 1. On the procedure:
Human Embryonic kidney cells (HEK293) were constructed to express human PDGFRWT under the control of constitutive CMV promoter. Cells were grown in the presence of 20 ng/ml PDGF (the ligand for the PDGFRβ) to activate the PDGFRβ. Different concentrations of the compounds of Examples 1 and 2 were added to study their effect on the PDGFRβ-mediated signaling. Autophosphorylation of PDGFRβ and Shp2 phosphorylation were monitored by Western blotting and were used as the markers for PDGFRβ signaling. β-Actin was used as an internal control.
Background: Immunoblotting shows a protein as a band on a membrane.

Experiment [9] deals with BA/F3 cells expressing PDGFR. Nature of the experiment: Cell viability by MTS assay (MTS Assay 1). Type of experiment: cell-based. The conditions noted are these: for Activity in MTS cell viability assay compared to imatinib and quizartinib controls: Ba/F3 cells expressing PDGFR, FIG. 2. On the procedure: as §2, §3
For the MTS Assay, the result indicates the concentration of compound required to reduce cell viability to 50%.
(Formazan colour is commonly taken as a measure of viable cells.)

The mark [10] stands for this setting: Mus musculus, BaF3, concentration required to reduce cell viability to 50%, BA/F3 cells expressing PDGFR, 20-48 hrs, read-out: IC50 (nM) MTS Assay 1.

Each structure is given as a SMILES string. Where two headings read alike, the source gives them in different places.

Sequence of PDGFR-α (P16234 24-1089): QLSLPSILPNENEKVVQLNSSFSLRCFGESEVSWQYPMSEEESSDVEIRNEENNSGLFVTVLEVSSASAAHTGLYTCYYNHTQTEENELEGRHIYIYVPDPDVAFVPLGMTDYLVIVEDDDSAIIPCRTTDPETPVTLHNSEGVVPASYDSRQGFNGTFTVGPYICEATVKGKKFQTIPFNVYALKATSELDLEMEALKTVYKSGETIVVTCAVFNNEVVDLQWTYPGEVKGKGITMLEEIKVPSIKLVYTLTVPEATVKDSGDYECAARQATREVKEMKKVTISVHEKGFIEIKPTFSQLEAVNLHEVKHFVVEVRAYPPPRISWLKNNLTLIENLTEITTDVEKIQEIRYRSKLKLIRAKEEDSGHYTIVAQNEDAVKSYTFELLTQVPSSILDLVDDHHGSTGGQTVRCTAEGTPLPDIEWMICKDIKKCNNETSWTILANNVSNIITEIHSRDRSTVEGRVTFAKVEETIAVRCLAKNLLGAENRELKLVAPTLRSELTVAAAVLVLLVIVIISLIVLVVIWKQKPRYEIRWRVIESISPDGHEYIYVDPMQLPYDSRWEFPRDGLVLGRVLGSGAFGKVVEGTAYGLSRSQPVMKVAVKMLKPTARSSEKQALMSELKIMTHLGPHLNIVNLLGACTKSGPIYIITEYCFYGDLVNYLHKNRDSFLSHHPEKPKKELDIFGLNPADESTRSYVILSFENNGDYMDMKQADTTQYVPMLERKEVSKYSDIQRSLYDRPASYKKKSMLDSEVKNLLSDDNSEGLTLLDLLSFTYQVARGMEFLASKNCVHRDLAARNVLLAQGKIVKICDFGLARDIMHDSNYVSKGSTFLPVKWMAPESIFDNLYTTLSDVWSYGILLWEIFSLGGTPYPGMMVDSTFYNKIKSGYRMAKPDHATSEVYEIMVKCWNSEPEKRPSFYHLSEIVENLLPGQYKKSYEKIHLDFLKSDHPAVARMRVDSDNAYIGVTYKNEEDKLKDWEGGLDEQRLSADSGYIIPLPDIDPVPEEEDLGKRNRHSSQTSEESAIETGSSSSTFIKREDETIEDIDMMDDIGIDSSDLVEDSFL
T2 sequence (P09619 33-1106): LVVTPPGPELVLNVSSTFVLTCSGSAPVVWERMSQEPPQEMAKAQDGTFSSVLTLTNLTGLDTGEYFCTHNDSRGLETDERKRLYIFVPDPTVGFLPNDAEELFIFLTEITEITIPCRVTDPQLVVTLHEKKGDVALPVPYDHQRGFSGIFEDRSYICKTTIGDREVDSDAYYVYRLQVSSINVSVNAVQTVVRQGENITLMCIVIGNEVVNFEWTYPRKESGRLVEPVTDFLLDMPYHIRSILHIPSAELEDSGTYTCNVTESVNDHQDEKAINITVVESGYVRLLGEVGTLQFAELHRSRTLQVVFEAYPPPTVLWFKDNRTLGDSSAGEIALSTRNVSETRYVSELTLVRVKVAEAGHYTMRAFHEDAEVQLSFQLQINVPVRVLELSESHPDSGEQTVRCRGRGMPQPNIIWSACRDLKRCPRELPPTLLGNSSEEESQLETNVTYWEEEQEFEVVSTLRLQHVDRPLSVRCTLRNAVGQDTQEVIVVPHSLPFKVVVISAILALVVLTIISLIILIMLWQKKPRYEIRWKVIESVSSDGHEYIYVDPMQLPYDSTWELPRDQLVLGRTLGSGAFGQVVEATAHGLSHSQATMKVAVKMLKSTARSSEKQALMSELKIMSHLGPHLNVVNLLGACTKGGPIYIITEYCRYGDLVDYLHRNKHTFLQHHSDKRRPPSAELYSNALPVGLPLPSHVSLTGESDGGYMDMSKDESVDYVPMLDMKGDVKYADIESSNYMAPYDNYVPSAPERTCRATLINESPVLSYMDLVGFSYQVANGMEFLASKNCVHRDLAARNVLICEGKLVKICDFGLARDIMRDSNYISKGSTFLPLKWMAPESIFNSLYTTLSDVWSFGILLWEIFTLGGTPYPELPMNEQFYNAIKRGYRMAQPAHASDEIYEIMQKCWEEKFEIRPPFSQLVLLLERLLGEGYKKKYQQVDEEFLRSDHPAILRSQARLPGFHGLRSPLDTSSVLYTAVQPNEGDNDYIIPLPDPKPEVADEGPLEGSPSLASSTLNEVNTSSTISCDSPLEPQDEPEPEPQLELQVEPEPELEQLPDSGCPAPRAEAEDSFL
Sequence of VEGFR-2 (P35968 20-1356): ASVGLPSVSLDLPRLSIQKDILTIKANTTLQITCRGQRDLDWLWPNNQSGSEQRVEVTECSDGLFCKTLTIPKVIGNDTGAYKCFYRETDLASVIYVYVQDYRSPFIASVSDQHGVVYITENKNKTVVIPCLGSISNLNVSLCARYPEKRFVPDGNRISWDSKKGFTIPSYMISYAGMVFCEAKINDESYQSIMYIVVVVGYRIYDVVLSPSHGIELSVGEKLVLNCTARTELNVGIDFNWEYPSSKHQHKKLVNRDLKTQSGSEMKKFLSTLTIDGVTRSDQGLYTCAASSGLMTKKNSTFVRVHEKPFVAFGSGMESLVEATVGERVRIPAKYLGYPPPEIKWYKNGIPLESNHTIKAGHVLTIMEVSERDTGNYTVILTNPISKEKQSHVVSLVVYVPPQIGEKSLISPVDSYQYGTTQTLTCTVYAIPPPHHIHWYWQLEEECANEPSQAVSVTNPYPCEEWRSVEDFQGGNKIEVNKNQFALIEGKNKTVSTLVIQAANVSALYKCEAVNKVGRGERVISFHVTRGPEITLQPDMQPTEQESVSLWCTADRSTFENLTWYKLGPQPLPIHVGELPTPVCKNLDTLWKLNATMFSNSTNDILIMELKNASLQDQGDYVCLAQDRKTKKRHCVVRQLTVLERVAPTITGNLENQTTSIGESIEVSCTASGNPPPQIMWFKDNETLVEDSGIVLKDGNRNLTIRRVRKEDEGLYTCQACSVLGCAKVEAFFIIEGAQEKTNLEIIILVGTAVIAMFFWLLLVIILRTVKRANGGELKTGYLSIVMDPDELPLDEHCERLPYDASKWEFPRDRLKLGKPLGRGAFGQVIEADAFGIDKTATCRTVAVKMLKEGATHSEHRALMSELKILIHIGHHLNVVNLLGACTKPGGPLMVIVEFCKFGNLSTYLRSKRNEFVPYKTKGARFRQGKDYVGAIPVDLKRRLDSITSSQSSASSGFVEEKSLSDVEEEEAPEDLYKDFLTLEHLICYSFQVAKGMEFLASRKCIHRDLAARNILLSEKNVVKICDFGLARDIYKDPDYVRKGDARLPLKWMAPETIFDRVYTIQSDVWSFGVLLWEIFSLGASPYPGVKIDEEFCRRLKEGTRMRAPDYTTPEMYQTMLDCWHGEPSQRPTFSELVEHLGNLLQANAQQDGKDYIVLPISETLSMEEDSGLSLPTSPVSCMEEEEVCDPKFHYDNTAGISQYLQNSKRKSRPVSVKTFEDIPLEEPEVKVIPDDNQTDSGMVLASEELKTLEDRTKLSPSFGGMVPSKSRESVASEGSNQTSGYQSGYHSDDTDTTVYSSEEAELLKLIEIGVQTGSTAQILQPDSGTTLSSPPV
Sequence of CDK8 (P49336 whole entry, species assumed, the tested form may be a part): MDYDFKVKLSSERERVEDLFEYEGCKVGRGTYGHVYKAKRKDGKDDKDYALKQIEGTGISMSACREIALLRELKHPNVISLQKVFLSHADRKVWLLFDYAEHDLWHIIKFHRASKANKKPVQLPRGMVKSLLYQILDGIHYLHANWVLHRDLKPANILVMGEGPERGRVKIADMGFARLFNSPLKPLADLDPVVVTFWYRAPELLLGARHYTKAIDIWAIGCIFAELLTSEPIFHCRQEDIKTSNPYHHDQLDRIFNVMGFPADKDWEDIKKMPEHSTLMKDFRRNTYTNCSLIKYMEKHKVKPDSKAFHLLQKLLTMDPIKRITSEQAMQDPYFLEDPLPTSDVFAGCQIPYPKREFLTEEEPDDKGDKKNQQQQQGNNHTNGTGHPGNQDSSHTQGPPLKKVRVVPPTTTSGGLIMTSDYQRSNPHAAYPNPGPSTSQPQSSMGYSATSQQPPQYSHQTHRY
Sequence of CDK8 (P24863 whole entry partner, species assumed, the tested form may be a part): as the sequence (P24863 whole entry partner, species assumed) above

On to `Cn1nc(NC(=O)COc2ccc(-c3cnc4ccccn34)cn2)cc1C(F)(F)F` [Example 1], for which the IC50 in experiment [1], in [2], in [3], in experiment [4], in experiment [5] and in [6] was less than 500 nM throughout. The IC50 in experiment [7] was less than 500 nM; in [9] (Mus musculus, BaF3, read-out: IC50 (nM) MTS Assay 1), less than 500 nM. For the same molecule, the “Inhibition of PDGFRβ signaling (PDGFRβ autophosphorylation, Shp2 phosphorylation)” value in [8] is “able to inhibit PDGFRβ signaling”. Further, the “Activity in MTS cell viability assay compared to imatinib and quizartinib controls” value in [9] is “improved activity when compared to the imatinib and quizartinib controls”.

Regarding `Cc1ccc(NC(=O)COc2ccc(-c3cnc4ccccn34)cn2)cc1C(F)(F)F` [Example 2], the “Inhibition of PDGFRβ signaling (PDGFRβ autophosphorylation, Shp2 phosphorylation)” value in experiment [8] is given as “able to inhibit PDGFRβ signaling”.

With `Cc1cnc(NC(=O)COc2ccc(-c3cnc4cnccn34)cn2)cc1C(F)(F)F` [Example 3], in experiment [9], the “Activity in MTS cell viability assay compared to imatinib and quizartinib controls” value is “improved activity when compared to the imatinib and quizartinib controls”.

With `Cn1nc(NC(=O)COc2ccc(-c3cnc4cnccn34)c(F)n2)cc1C(F)(F)F` [Example 6], the IC50 is less than 500 nM in experiment [7] and 500 to 5000 nM in [9] (setting [10]).

In the case of `Cc1ccc(NC(=O)COc2ccc(-c3cnc4cnccn34)c(F)n2)cc1C(F)(F)F` [Example 7], the IC50 in experiment [7] and in experiment [9] (setting [10]) was less than 500 nM throughout.

On to `Cn1nc(NC(=O)COc2ccc(-c3cnc4cnccn34)cn2)cc1C(F)(F)F` [Example 9], for which the IC50 in [1] was less than 500 nM; in [5], less than 500 nM; in experiment [9] (concentration required to reduce cell viability to 50%, BA/F3 cells expressing PDGFR, 20-48 hrs, read-out: IC50 (nM) MTS Assay 1) it was less than 500 nM.

Consider `Cc1ccc(NC(=O)COc2ccc(-c3cnc4ccc(-c5ccc(C(=O)N6CCOCC6)cc5)cn34)cc2)cc1C(F)(F)F` [Example 10], for which the IC50 in [9] (setting [10]) was less than 500 nM.

As for `O=C(Nc1cc(C(F)(F)F)c(Cl)cn1)C1(Oc2ccc(-c3cnc4cnccn34)cn2)CC1` [Example 12], the IC50 in experiment [1], in experiment [2], in [3], in experiment [4], in experiment [5] and in experiment [6] was greater than 5000 nM throughout.

Take `CC(Oc1ccc(-c2cnc3cnccn23)cn1)C(=O)Nc1cc(C(F)(F)F)c(Cl)cn1` (stereo not drawn) [Example 13]: the IC50 was 500 to 5000 nM in experiment [1]; greater than 5000 nM in [2]; 500 to 5000 nM in experiment [3]; 500 to 5000 nM in experiment [4]; 500 to 5000 nM in experiment [5]; 500 to 5000 nM in experiment [6].

With `Cc1ccc(NC(=O)c2ccc(Nc3cnc4cnccn34)cc2)cc1C(F)(F)F` [Example 14], the IC50 in [1] was 500 to 5000 nM; in [2] it was greater than 5000 nM; in experiment [3] it was greater than 5000 nM; in experiment [4], greater than 5000 nM; in experiment [5], 500 to 5000 nM; in experiment [6] it was greater than 5000 nM.

In the case of `Cc1ccc(NC(=O)CNc2ccc(-c3cnc4cnccn34)cc2)cc1C(F)(F)F` [Example 15], the IC50 in [1], in experiment [2], in experiment [3], in [4], in [5] and in experiment [6] was less than 500 nM in each case. Further, the IC50 in experiment [7] was less than 500 nM.

Consider `O=C(CNc1ccc(-c2cnc3cnccn23)cc1)Nc1cc(C(F)(F)F)c(Cl)cn1` [Example 16], for which the IC50 in [1], in experiment [2], in experiment [3], in experiment [4], in [5] and in experiment [6] was less than 500 nM throughout.

As for `Cn1nc(NC(=O)CNc2ccc(-c3cnc4cnccn34)cc2)cc1C(F)(F)F` [Example 17], the IC50 in experiment [1], in experiment [2], in experiment [3], in experiment [4], in experiment [5] and in experiment [6] was less than 500 nM throughout.

Consider `Cn1nc(NC(=O)CNc2ccc(-c3cnc4cnccn34)c(F)c2)cc1C(F)(F)F` [Example 18], for which the IC50 in [1], in experiment [2], in [3], in experiment [4], in experiment [5] and in experiment [6] was less than 500 nM throughout.

`Cn1nc(NC(=O)COc2ccc(-c3cnn4cccnc34)cc2)cc1C(F)(F)F` [Example 19]: the IC50 in experiment [1], in [2], in [3], in [4], in [5] and in experiment [6] was less than 500 nM in each case.
